Assay results as given in ChEMBL document CHEMBL1133228, “Synthesis and PTP1B inhibition of novel 4-aryl-1-oxa-9-thiacyclopenta[b]fluorenes” (Bioorg Med Chem Lett, 2000).

Key:
Mus musculus [1] = assay: Reduction in insulin-induced protein tyrosine phosphorylation in liver of ob/ob mice at 10 mg/kg perorally; type: functional; settings: route oral
Mus musculus [2] = assay: Reduction in insulin-induced protein tyrosine phosphorylation in liver of ob/ob mice at 25 mg/kg perorally; type: functional; settings: route oral
[3] = target: T1, Tyrosine-protein phosphatase non-receptor type 1 (Homo sapiens, UniProt P18031); assay: Compound was evaluated for the inhibitory activity against recombinant Protein-tyrosine phosphatase 1B using, phosphotyrosyl dodecapeptide [TRDI(P)YETD(P)Y(P)YRK] as substrate
T1 sequence (P18031 whole entry): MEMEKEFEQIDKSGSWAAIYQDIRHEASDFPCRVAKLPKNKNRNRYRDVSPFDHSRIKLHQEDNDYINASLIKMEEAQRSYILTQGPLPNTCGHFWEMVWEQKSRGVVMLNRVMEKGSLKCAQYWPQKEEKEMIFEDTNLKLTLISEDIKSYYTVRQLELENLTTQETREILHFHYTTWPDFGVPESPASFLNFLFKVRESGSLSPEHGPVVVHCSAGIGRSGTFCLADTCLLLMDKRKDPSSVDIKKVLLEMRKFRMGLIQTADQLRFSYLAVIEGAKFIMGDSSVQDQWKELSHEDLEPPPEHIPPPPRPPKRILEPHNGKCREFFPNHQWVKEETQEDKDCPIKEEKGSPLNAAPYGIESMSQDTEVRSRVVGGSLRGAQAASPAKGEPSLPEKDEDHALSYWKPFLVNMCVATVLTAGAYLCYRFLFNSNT

`Cc1oc2cc3sc4ccccc4c3c(-c3cc(I)c(O[C@H](Cc4ccccc4)C(=O)O)c(I)c3)c2c1C` was tested. Which Insulin lowering effect (Mus musculus [1]) did it give?
Its Insulin lowering effect is 43%.

For `O=C(O)[C@@H](Cc1ccccc1)Oc1c(I)cc(-c2c3ccccc3cc3sc4ccccc4c23)cc1I`, which Insulin lowering effect (Mus musculus [2]) is on record?
Its Insulin lowering effect is 68%.

And the IC50 [3]?
Its IC50 is 179 nM.
